The record followed here is patent US20250163056A1, “NONMUSCLE MYOSIN II INHIBITORS” (The University of Florida Research Foundation, Inc., priority 2018, published 2025).

One data set has as its target Bovine cardiac myosin (Bos taurus (Bovine), UniProt Q9BE39). The data set can be described thus: Cardiac muscle myosin II actin-activated ATPase assay (NADH-coupled). Set-up: key to Ratio CMMII:NMII Ki/EC50: NMII-sel: no Ki value for cardiac myosin II could be determined; the compounds had no detectable inhibitory properties versus the cardiac myosin II. The note with it: for Ratio CMMII:NMII Ki/EC50: cardiac myosin II Ki over nonmuscle myosin II EC50; for Ki: 300 nM cardiac myosin, 10 μM actin, 25° C., read-out: CMMII KI. Type of data set: biochemical. The source says:
(§1) The cardiac muscle myosin II actin-activated ATPase assay is a biochemical assay. Specifically, it is an NADH (nicotinamide adenine dinucleotide)-coupled ATPase assay that relies on NADH fluorescence as a readout. Cardiac myosin is a mechanochemical energy transducer that hydrolyzes ATP to generate force in the presence of its activator, F-actin. The resulting ADP is regenerated to ATP by pyruvate kinase (PK) that transforms one molecule of phosphoenolpyruvate (PEP) to pyruvate in parallel. Subsequently, pyruvate is reduced to lactate by lactate dehydrogenase (LDH) that, in turn, oxidizes one molecule of NADH to NAD. Therefore, the decrease in NADH concentration as a function of time equals the ATP hydrolysis rate. Bovine cardiac myosin is obtained from a commercial source, Cytoskeleton. PK, LDH, ATP, PEP, and NADH are obtained from Sigma. F-actin is prepared in house from Rabbit Muscle Acetone Powder. The assay is run at 25° C. in 384 well black-wall polystyrene microplates with a total volume of 20 μl per well. NADH fluorescence is monitored for 30 minutes with an EnVision Multimode Plate Reader. The slope of the fluorescence response, which is proportional to the reaction rate, is determined by simple linear regression. Final assay conditions are 300 nM cardiac myosin, 10 μM actin, 40 U/ml LDH, 200 U/ml PK, 220 μM NADH, 1 mM PEP, 1 mM ATP in a buffer containing 10 mM 3-(N-morpholino)propanesulfonic acid (pH=7.0), 2 mM MgCl2, 0.15 mM ethylene glycol-bis(p-aminoethyl ether)-N,N,N′,N′-tetraacetic acid, 0.1 mg/mL bovine serum albumin, 0.5% (V/V) dimethyl sulfoxide (DMSO) and 1 mM dithiothreitol. Prior to testing the inhibitory activity of the compounds, a two-fold dilution series starting at 10 mM compound concentration is prepared in DMSO. Subsequently, 100 nl is transferred to each well of the measuring plate containing a mixture of myosin, LDH and PK. The enzymatic reaction is started with the addition of a mixture containing ATP, PEP, NADH and actin. The highest final compound concentration is 50 uM. 20 μM para-aminoblebbistatin in 0.5% DMSO serves as the positive control and 0.5% DMSO alone is the negative control. Reaction rates are determined by using the fluorescence responses of a dilution series of NADH included in all plates and plotted as a function of inhibitor concentration. All measurements are carried out in triplicate. Inhibitory constants are determined by fitting the 16 point dose-response data to a quadratic equation corresponding to a simple one-to-one binding model.

The next data set addresses Rabbit skeletal myosin. In words: Skeletal muscle myosin II actin-activated ATPase assay. The data set is classed as biochemical. The note with it: 20 nM skeletal muscle myosin II; read-out: SKMMII KI.
From the text: as §1
The skeletal muscle myosin II actin-activated ATPase assay is performed the same as for cardiac muscle myosin II with the following exceptions: Rabbit skeletal myosin is obtained from Cytoskeleton and the final assay conditions contain 20 nM skeletal muscle myosin II.

A short description of data set [1]: Photostability, percentage remaining undegraded under illumination or in the dark. The note with it: for Photostability 4 hours: percentage remaining undegraded after 4 hours illumination; for Photostability 24 hours: percentage remaining undegraded after 24 hours illumination; for Photostability Dark (24 h): percentage remaining undegraded in the dark.

Bovine cardiac myosin, sequence (Q9BE39 whole entry): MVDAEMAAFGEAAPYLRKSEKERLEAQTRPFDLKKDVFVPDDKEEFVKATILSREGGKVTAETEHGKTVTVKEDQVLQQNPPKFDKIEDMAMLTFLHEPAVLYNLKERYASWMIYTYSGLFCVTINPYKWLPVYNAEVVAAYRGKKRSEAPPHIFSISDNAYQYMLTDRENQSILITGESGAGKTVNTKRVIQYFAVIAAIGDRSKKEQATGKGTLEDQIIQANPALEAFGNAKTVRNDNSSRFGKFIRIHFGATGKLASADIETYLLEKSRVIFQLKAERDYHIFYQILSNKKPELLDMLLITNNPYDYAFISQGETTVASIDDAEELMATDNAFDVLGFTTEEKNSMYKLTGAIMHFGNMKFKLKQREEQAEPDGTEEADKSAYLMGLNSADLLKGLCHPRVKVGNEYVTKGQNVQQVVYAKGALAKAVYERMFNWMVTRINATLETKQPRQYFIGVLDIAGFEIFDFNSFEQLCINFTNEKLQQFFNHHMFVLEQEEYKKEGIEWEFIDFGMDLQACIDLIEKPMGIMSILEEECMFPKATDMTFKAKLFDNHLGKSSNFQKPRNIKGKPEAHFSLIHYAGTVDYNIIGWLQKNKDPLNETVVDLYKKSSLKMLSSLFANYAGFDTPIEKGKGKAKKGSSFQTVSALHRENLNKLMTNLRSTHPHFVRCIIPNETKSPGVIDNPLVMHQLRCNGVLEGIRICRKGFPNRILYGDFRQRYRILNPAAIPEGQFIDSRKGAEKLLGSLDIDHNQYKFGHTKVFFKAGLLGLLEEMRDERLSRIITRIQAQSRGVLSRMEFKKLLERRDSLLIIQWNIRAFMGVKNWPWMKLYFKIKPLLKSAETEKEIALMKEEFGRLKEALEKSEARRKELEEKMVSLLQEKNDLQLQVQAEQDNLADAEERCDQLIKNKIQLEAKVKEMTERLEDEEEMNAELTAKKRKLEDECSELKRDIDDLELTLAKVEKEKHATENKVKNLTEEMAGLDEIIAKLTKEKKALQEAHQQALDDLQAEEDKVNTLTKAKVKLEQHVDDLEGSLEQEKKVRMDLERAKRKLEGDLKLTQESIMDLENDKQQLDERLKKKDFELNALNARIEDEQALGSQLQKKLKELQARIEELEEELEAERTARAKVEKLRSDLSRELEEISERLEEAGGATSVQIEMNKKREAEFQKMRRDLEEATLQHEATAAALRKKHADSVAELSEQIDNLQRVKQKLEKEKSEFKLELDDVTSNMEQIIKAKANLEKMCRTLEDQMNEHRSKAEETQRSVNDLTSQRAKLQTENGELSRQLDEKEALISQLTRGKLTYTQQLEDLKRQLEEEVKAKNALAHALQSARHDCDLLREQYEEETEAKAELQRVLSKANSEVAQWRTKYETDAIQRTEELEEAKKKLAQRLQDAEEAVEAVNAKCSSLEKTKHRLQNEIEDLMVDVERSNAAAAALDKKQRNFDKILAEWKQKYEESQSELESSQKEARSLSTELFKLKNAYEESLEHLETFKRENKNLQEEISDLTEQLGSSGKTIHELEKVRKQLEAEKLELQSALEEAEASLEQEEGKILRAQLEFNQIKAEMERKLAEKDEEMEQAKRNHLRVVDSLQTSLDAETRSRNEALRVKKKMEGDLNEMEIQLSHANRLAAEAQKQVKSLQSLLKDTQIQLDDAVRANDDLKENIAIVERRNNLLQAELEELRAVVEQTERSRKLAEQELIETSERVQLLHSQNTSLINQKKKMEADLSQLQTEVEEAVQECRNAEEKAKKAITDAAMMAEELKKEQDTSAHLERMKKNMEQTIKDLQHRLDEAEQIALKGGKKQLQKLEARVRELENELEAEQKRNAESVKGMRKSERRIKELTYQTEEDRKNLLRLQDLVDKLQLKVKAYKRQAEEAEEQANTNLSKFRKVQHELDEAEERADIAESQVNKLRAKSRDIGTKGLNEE
Bovine cardiac myosin, sequence (P85100 whole entry partner): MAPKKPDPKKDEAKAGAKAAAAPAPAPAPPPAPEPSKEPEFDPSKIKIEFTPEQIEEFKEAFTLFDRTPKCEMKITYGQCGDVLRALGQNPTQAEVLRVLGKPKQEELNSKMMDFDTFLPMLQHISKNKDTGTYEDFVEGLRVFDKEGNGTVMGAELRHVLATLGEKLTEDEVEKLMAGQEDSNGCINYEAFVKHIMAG
Bovine cardiac myosin, sequence (Q3SZE5 whole entry partner): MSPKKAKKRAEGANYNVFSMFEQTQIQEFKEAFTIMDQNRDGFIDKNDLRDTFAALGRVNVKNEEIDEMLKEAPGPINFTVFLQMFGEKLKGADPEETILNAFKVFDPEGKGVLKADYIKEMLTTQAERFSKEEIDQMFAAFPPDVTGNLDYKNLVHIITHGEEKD

On to `Cc1ccc2c(c1)C(=O)[C@]1(O)CCN(c3ccc(C)c(Cl)c3)C1=N2` [BPN-0025254], for which the “Ratio CMMII:NMII Ki/EC50” value at Bovine cardiac myosin is given as “NMII-sel”. Moreover, at Rabbit skeletal myosin, the Ki stood at 7.7 µM. In data set [1], the “Photostability 4 hours” value is given as 92.5%, the “Photostability 24 hours” value came out at 39.4% and the “Photostability Dark (24 h)” value is more than 99%.
Taken in the same sequence, the figures for `Cc1ccc2c(c1)C(=O)[C@]1(O)CCN(c3ccc(C)c(C)c3)C1=N2` [BPN-0025903] were “NMII-sel”, 11 µM, 39.8%, 7.5% and 98.3%.
The like results for `Cc1ccc2c(c1)C(=O)[C@]1(O)CCN(c3ccc4occc4c3)C1=N2` [BPN-0026283] were, in that order, “NMII-sel”, 5 µM, 39.4%, 10.8% and 92.0%.
On to `Cc1ccc2c(c1)C(=O)[C@]1(O)CCN(c3ccc4ccoc4c3)C1=N2` [BPN-0026285], for which, on Bovine cardiac myosin, the Ki was found to be 9.1 µM and the “Ratio CMMII:NMII Ki/EC50” value came out at 5.7. Moreover, the Ki at Rabbit skeletal myosin was 0.9 µM. Further, in data set [1], the “Photostability 4 hours” value came out at 51.9%, the “Photostability 24 hours” value is given as 8.2% and the “Photostability Dark (24 h)” value was determined as 94.7%.
For `Cc1ccc2c(c1)C(=O)[C@]1(O)CCN(c3ccc(C#N)c(C)c3)C1=N2` [BPN-0026324], on Bovine cardiac myosin, the Ki came out at 30 µM and the “Ratio CMMII:NMII Ki/EC50” value is reported as 13.6. Further, the inhibitory constant (Ki) on Rabbit skeletal myosin was found to be 3.5 µM. Also, in data set [1], the “Photostability 4 hours” value is 98.5%, the “Photostability 24 hours” value is reported as 90.4% and the “Photostability Dark (24 h)” value is recorded as more than 99%.
Consider `Cc1ccc2c(c1)C(=O)[C@]1(O)CCN(c3ccc(Cl)c(C)c3)C1=N2` [BPN-0026325], for which the “Ratio CMMII:NMII Ki/EC50” value on Bovine cardiac myosin is recorded as “NMII-sel”. Further, the Ki at Rabbit skeletal myosin came out at 13 µM. Besides, in data set [1], the “Photostability 4 hours” value came out at 89.0%, the “Photostability 24 hours” value worked out at 14.0% and the “Photostability Dark (24 h)” value was 97.8%.
Take `Cc1cc2c(cc1F)C(=O)[C@]1(O)CCN(c3ccccc3)C1=N2` [BPN-0026387]: on Bovine cardiac myosin, the Ki came out at 13 µM and the “Ratio CMMII:NMII Ki/EC50” value is 5.2. Further, the Ki on Rabbit skeletal myosin was determined as 1.2 µM. Besides, in data set [1], the “Photostability 4 hours” value is recorded as 85.2%, the “Photostability 24 hours” value came to 18.0% and the “Photostability Dark (24 h)” value was found to be 93.5%.
With `COc1ccc(N2CC[C@@]3(O)C(=O)c4cc(C(F)(F)F)ccc4N=C23)cc1` [BPN-0026393], at Bovine cardiac myosin, the Ki was 11 µM and the “Ratio CMMII:NMII Ki/EC50” value worked out at 3.2. Besides, the Ki on Rabbit skeletal myosin worked out at 1.7 µM. In data set [1], the “Photostability 4 hours” value amounted to 97.9%, the “Photostability 24 hours” value is listed as 75.0% and the “Photostability Dark (24 h)” value is given as more than 99%.
Take `Cc1ccc2c(c1)C(=O)[C@]1(O)CCN(c3ccc(C#N)c(Cl)c3)C1=N2` [BPN-0026394]: the “Ratio CMMII:NMII Ki/EC50” value at Bovine cardiac myosin was “NMII-sel”. At Rabbit skeletal myosin, the Ki is 4.8 µM. Besides, in data set [1], the “Photostability 4 hours” value is more than 99%, the “Photostability 24 hours” value was 98.7% and the “Photostability Dark (24 h)” value is on record as more than 99%.
`O=C1c2cc(Cl)ccc2NC2N(c3ccc4ccoc4c3)CC[C@@]12O` (stereo partly shown) [BPN-0026401]: on Bovine cardiac myosin, the Ki worked out at 50 µM and the “Ratio CMMII:NMII Ki/EC50” value came out at 16.7. The Ki at Rabbit skeletal myosin was 3.3 µM. Further, in data set [1], the “Photostability 4 hours” value is 81.2%, the “Photostability 24 hours” value was found to be 9.6% and the “Photostability Dark (24 h)” value is 97.7%.
`Cn1cc(N2CC[C@@]3(O)C(=O)c4cc(C(F)(F)F)ccc4N=C23)cn1` [BPN-0026413]: at Bovine cardiac myosin, the Ki is 110 µM and the “Ratio CMMII:NMII Ki/EC50” value amounted to 3.1. Also, the Ki on Rabbit skeletal myosin was 33 µM. Moreover, in data set [1], the “Photostability 4 hours” value worked out at 94.3%, the “Photostability 24 hours” value came to 82.2% and the “Photostability Dark (24 h)” value stood at 97.3%.
